Assay results from patent US5691366A, “Nitro compounds, process for preparation thereof and use thereof” (Fujisawa Pharmaceutical Co., Ltd., priority 1991, dated 1997).
Like-named read-outs stand apart in the source and are kept apart here.

Key:
[1] = test system: human platelet aggregation; assay: Inhibition of human platelet aggregation (anti-platelet aggregation activity); format: cell-based; settings: human PRP, concentration required to inhibit aggregation by 50%, read-out: ED50 (the source's name)
Method: Inhibitory activity of the nitro compounds of this invention against human platelet aggregation was measured according to the method described below.
Blood was collected from human volunteers. The blood was prevented from coagulation with 1 volume of 3.8% sodium citrate to 9 volumes of blood. Platelet rich plasma (PRP) was prepared by centrifugation of the blood at 1300 rpm for 10 min. at 10° C. The PRP was diluted with platelet poor plasma obtained by further centrifugation of the blood at 3000 rpm for 10 min. The platelet counts in the PRP used for aggregation studies were about 4.0×10^5 platelets/mm^3. Aggregation studies were performed turbidimetrically using NKK HEMATRACER 1. To 225 μl of PRP 25 μl of the test compounds was added and preincubated for 2 min. After preincubation 5 μl of aggregating agents were added to the mixture. Collagen and ADP were used as aggregating agents at the concentrations of 0.5 μg/ml and 2.5 μM, respectively. Activities of the test compounds were expressed as ED50 values i.e. concentrations required to inhibit the platelet aggregation responses by 50%.

[2] = test system: Mean Arterial Blood Pressure in Anesthetized Rats; assay: Effect on mean arterial blood pressure in anesthetized rats (intravenous); format: in vivo, rat (male Sprague-Dawley); settings: for inhibition in vivo at 0.32 mg/kg / inhibition in vivo at 0.032 mg/kg / inhibition in vivo at 0.1 mg/kg: Rattus norvegicus, iv, maximal % decrease of mean blood pressure, read-out: Hypotensive effect R max; for Hypotensive effect T 1/2: i.v., time to recover to half of maximal decrease
Method: Male Sprague-Dawley rats, aged 9-12 weeks, were anesthetized with urethane (1.4 g/kg i.p.). A polyethylene cannula filled with heparin solution was inserted into the femoral artery of the rats to measure mean blood pressure. Mean blood pressure was measured with a pressure transducer and recorded on a polygraph. The test compound dissolved in ethanol, polyethylene glycol and distilled water (1:1:2), were administered intraveneously in a volume of 0.25 ml/kg. Intravenous hypothypotensive effects of each compound were expressed as the maximal decrease (R max) and the half time (T 1/2). Briefly, R max was expressed as maximal % change compared to mean blood pressure prior to the administration of compound. T 1/2 was expressed as a time during which the hypotensive effect recovered to half of the maximal decrease.

[3] = test system: Mean Arterial Blood Pressure in Conscious Rats; assay: Effect on mean arterial blood pressure in conscious rats (oral); format: in vivo, rat (male Sprague-Dawley); settings: for Hypotensive effect Dur.: time to recover to 5% of maximal decrease; for Hypotensive effect T 1/2: time to recover to half of maximal decrease; for inhibition in vivo at 3.2 mg/kg / inhibition in vivo at 10 mg/kg / inhibition in vivo at 32 mg/kg: Rattus norvegicus, po, maximal % decrease of mean blood pressure, read-out: Hypotensive effect R max
Method: Male Sprague-Dawley rats, aged 9-11 weeks, were anesthetized with ether and a polyethylene cannula filled with heparin solution was inserted into the femoral artery of the rats to measure mean blood pressure. Mean blood pressure was measured with a pressure transducer and recorded on a polygraph. Two hours after operation, the drug suspended in 0.5% methyl cellulose was administered orally in a volume of 5 ml/kg. Oral hypotensive effects of each compound were expressed as the maximal decrease (R max), the half time (T 1/2) and the duration (Dur.). Briefly, R max was expressed as maximal % change compared to mean blood pressure prior to the administration of compound. T 1/2 was expressed as a time during which the hypotensive effect recovered to half of the maximal decrease. Duration was expressed as a time during which the hypotensive effect recovered to 5% of the maximal decrease.

[4] = test system: thoracic aorta from male Sprague-Dawley rats; assay: Vasodilating activity in vitro (relaxation of norepinephrine-contracted aortic strips); set-up: species or system rat (male Sprague-Dawley); settings: rat aorta helical strips contracted by 3.2×10^-8 g/ml norepinephrine, 37° C.
Method: The thoracic aorta from male Sprague-Dawley rats, aged 9-11 weeks, were removed and cut into helical strips after removal of excess fat and connective tissues. The strips were mounted vertically in organ baths containing 25 ml Tyrode solution and isometric tension was measured. The tissue bath solution was maintained at 37° C. and bubbled with a 95% O2 and 5% CO2 gas mixture. After the resting tension was adjusted to 0.5 g, the strips were contracted by 3.2×10^-8 g/ml of norepinephrine (NE). The test compound dissolved in ethanol, polyethylene glycol and distilled water (1:1:2) were added to the organ bath cumulatively.
Then, relaxative activity of test compound was expressed as IC50 value i.e. concentration required to inhibit the contraction response by 50%.

[5] = Homo sapiens, Platelet, Inducer: ADP 2.5 μM

IC50 ([4]; Rattus norvegicus)	IC50 [4]	SMILES	inhibition in vivo at 0.32 mg/kg ([2]; 0.32 mg/kg)	Hypotensive effect T 1/2 ([2]; 0.1 mg/kg)	Hypotensive effect T 1/2 ([2]; 0.32 mg/kg)	inhibition in vivo at 0.032 mg/kg ([2]; 0.032 mg/kg)	inhibition in vivo at 0.1 mg/kg ([2]; 0.1 mg/kg)	further results
46.9 µM	–	CCC(=CC(CNC(C)=O)=NO)C(C)[N+](=O)[O-] (single isomer, unassigned) [Example 5 A, 1-Acetylamino-4-ethyl-2-hydroxyimino-5-nitro-3-hexene]	49.9%	7.6 min	12.8 min	–	–	IC50 [1, 5]: 5.1 µM; Hypotensive effect Dur. ([3]; 3.2 mg/kg): 30.8 min; Hypotensive effect T 1/2 ([3]; 3.2 mg/kg): 16 min; Hypotensive effect Dur. ([3]; 10 mg/kg): 83.9 min; Hypotensive effect T 1/2 ([3]; 10 mg/kg): 25 min; Hypotensive effect Dur. ([3]; 32 mg/kg): 144.2 min; Hypotensive effect T 1/2 ([3]; 32 mg/kg): 75.6 min; inhibition in vivo at 3.2 mg/kg ([3]; 3.2 mg/kg): 27.2%; inhibition in vivo at 10 mg/kg ([3]; 10 mg/kg): 54.4%; inhibition in vivo at 32 mg/kg ([3]; 32 mg/kg): 60.6%
11.1 µM	–	CCC(=CC(COC(N)=O)=NO)C(C)[N+](=O)[O-] (single isomer, unassigned) [Example 2 B, 4-Ethyl-2-hydroxyimino-5-nitro-3-hexen-1-yl carbamate]	–	7.3 min	–	30.9%	35.4%	IC50 ([1]; Inducer: ADP 2.5 μM): 2.4 µM; IC50 ([1]; Inducer: Collagen 0.5 μg/ml): 3.6 µM; Hypotensive effect T 1/2 ([2]; 0.032 mg/kg): 5.3 min
–	19.4 µM	CCC(=CC(CNS(=O)(=O)N(C)C)=NO)C(C)[N+](=O)[O-] (single isomer, unassigned) [Example 7 B, N,N-Dimethyl-N'-(4-ethyl-2-hydroxyimino-5-nitro-3-hexen-1-yl)sulfamide]	–	6.6 min	–	–	–	–
–	1.8 µM	CCC(=CC(CN1C(=O)c2ccccc2C1=O)=NO)C(C)[N+](=O)[O-] (single isomer, unassigned) [Example 4 B, N-(4-Ethyl-2-hydroxyimino-5-nitro-3-hexen-1-yl)-phthalimide]	–	–	–	–	–	–
–	88.7 µM	CCC(=CC(CNC(C)=O)=NO)C(C)[N+](=O)[O-] (single isomer, unassigned) [Example 5 B, 1-Acetylamino-4-ethyl-2-hydroxyimino-5-nitro-3-hexene]	–	6.2 min	–	–	34.3%	–
18.8 µM	–	CCNC(=O)OCC(C=C(CC)C(C)[N+](=O)[O-])=NO (single isomer, unassigned) [Example 3 A, 4-Ethyl-2-hydroxyimino-5-nitro-3-hexen-1-yl ethylcarbamate]	–	7.2 min	–	12.6%	29.3%	Hypotensive effect T 1/2 ([2]; 0.032 mg/kg): 4.8 min
–	10 µM	CCC(=CC(COC(=O)c1cccnc1)=NO)C(C)[N+](=O)[O-] (single isomer, unassigned) [Example 1 B, 4-ethyl-2-hydroxyimino-5-nitro-3-hexen-1-yl 3-pyridinecarboxylate]	–	–	–	11.8%	–	–
16 µM	–	CCC(=CC(COC(=O)c1cccnc1)=NO)C(C)[N+](=O)[O-] (single isomer, unassigned) [Example 1 A, 4-ethyl-2-hydroxyimino-5-nitro-3-hexen-1-yl 3-pyridinecarboxylate]	37%	–	–	–	21.7%	–
–	–	CCC(=CC(COC(N)=O)=NO)C(C)[N+](=O)[O-] (single isomer, unassigned) [Example 2 A, 4-Ethyl-2-hydroxyimino-5-nitro-3-hexen-1-yl carbamate]	–	–	–	–	–	IC50 ([1]; Homo sapiens, Platelet, Inducer: Collagen 0.5 μg/ml): 4.6 µM; IC50 ([1]; Inducer: ADP 2.5 μM): 8.6 µM
–	5 µM	CCC(=CC(CSc1nnnn1C)=NO)C(C)[N+](=O)[O-] (single isomer, unassigned) [Example 12 B, 1-Methyl-5-(4-ethyl-2-hydroxyimino-5-nitro-3-hexen-1-yl)thiotetrazole]	–	–	–	–	–	IC50 ([1]; Inducer: ADP 2.5 μM): 1.7 µM
–	25.1 µM	CCC(=CC(CNC(=O)c1cccnc1)=NO)C(C)[N+](=O)[O-] (centres unmarked) [Example 6 A]	36.3%	6.8 min	11.2 min	–	16.9%	IC50 [1, 5]: 1.8 µM; Hypotensive effect Dur. ([3]; 3.2 mg/kg): 29.3 min; Hypotensive effect T 1/2 ([3]; 3.2 mg/kg): 20 min; Hypotensive effect Dur. ([3]; 10 mg/kg): 116.0 min; Hypotensive effect T 1/2 ([3]; 10 mg/kg): 30 min; Hypotensive effect Dur. ([3]; 32 mg/kg): > 300 min; Hypotensive effect T 1/2 ([3]; 32 mg/kg): 117 min; inhibition in vivo at 3.2 mg/kg ([3]; 3.2 mg/kg): 22.3%; inhibition in vivo at 10 mg/kg ([3]; 10 mg/kg): 27.2%; inhibition in vivo at 32 mg/kg ([3]; 32 mg/kg): 29.6%
1.2 µM	–	CCC(=CC(CN1C(=O)c2ccccc2C1=O)=NO)C(C)[N+](=O)[O-] (single isomer, unassigned) [Example 4 A, N-(4-Ethyl-2-hydroxyimino-5-nitro-3-hexen-1-yl)-phthalimide]	40.8%	6.7 min	5.1 min	–	24.6%	–
0.11 µM	–	CCC(=CC(CSc1nc2ccccc2s1)=NO)C(C)[N+](=O)[O-] (single isomer, unassigned) [Example 14 B, 2-(4-Ethyl-2-hydroxyimino-5-nitro-3-hexen-1-yl)thio-benzothiazole]	–	–	–	4.7%	33.9%	–
10.7 µM	–	CCC(=CC(CNS(=O)(=O)N(C)C)=NO)C(C)[N+](=O)[O-] (single isomer, unassigned) [Example 7 A, N,N-Dimethyl-N'-(4-ethyl-2-hydroxyimino-5-nitro-3-hexen-1-yl)sulfamide]	42.1%	7.6 min	5.1 min	–	31.7%	–
4.9 µM	–	CCC(=CC(CSc1nnnn1C)=NO)C(C)[N+](=O)[O-] (single isomer, unassigned) [Example 12 A, 1-Methyl-5-(4-ethyl-2-hydroxyimino-5-nitro-3-hexen-1-yl)thiotetrazole]	–	5.9 min	–	16.7%	37.7%	IC50 [1, 5]: 1.1 µM; Hypotensive effect T 1/2 ([2]; 0.032 mg/kg): 7.4 min
–	–	O=C(NCC(C=C1CCCCC1[N+](=O)[O-])=NO)c1cccnc1 (centres unmarked) [Example 21, N-[2-Hydroxyimino-3-(2-nitrocyclohexylidene)propyl]-3-pyridinecarboxamide]	26.5%	–	13.1 min	–	–	Hypotensive effect Dur. ([3]; 10 mg/kg): 67.7 min; Hypotensive effect T 1/2 ([3]; 10 mg/kg): 34.1 min; Hypotensive effect Dur. ([3]; 32 mg/kg): > 300 min; Hypotensive effect T 1/2 ([3]; 32 mg/kg): 88.1 min; inhibition in vivo at 10 mg/kg ([3]; 10 mg/kg): 34.3%; inhibition in vivo at 32 mg/kg ([3]; 32 mg/kg): 34.3%
